According to article PMC12369479 (Journal of Experimental Botany, 2025):
Like-named read-outs stand apart in the source and are kept apart here.

Tests used:
ZmADK2 [1] = target: T1, ZmADK2 (Zea mays, UniProt B4FFH8, T4S); assay: Binding affinity by microscale thermophoresis (MST); conditions: MST, 50 mM HEPES pH 7.5, 1 mM MgCl2, first or only binding event
Procedure: (§1) The microscale thermophoresis (MST) method was used to determine the binding affinity of various ribosides for ZmADK2 and PpADK1. Proteins were fluorescently labeled with RED-tris-NTA dye (www.nanotemper-technologies.com) using a 1:1 dye/protein molar ratio. The labeled protein was adjusted to 100–300 nM in 50 mM HEPES buffer pH 7.5, 1 mM MgCl2, and 0.2% Tween. Measurements were performed in premium capillaries on a Monolith NT.115 instrument at 30 °C with 5 s/30 s/5 s laser off/on/off times, respectively, with continuous sample fluorescence recording. Thermal stability was measured by nano-differential scanning fluorimetry on a Prometheus NT.48 instrument (www.nanotemper-technologies.com) in various buffers covering a pH (7.0–9.5) and temperature range (25–95 °C), with a heating rate of 1 °C min^–1, and using NT melting control software. Protein unfolding was measured by detecting the temperature-induced change in tryptophan fluorescence intensity at emission wavelengths of 330±5 nm and 350±5 nm. The melting temperature (Tm) was deduced from the maximum of the first derivative of the fluorescence ratios F350/F330.

PpADK2 = PpADK2 (Physcomitrium patens, UniProt A9RF27); assay: ADK activity, coupled reaction with PK and LDH; conditions: 10 mM ATP, pH 7.5, 30 °C; for Specific activity: 100 µM substrate
Chain of PpADK2 (A9RF27 entry or part of it): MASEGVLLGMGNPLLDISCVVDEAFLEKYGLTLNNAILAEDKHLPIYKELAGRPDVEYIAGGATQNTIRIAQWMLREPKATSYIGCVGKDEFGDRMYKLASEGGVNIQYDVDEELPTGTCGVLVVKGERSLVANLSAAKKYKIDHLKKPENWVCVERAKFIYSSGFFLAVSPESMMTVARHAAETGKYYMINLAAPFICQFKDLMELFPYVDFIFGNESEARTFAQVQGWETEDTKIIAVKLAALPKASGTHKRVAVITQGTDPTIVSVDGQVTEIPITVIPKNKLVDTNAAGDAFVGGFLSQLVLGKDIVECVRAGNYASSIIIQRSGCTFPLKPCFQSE
Procedure: (§2) Substrate analogs were purchased from Sigma-Aldrich (www.sigmaaldrich.com). The ADK activity was measured spectrophotometrically on an Agilent 8453 UV-Vis spectrophotometer (www.agilent.com) at 30 °C using a coupled reaction with pyruvate kinase (PK) and lactate dehydrogenase (LDH) (www.sigmaaldrich.com) ([Blondin et al., 1994]). In this assay, PK converts ADP produced by ADK and phosphoenolpyruvate (PEP) to pyruvate. Subsequently, LDH then converts pyruvate to lactate using the coenzyme NADH, with the conversion monitored at 340 nm. The reaction was conducted in 50 mM Tris–HCl buffer at pH 7.5, containing 50 mM KCl, 6 mM MgCl2, 300 µM PEP, 200 µM NADH, 10 mM ATP, 2 U of PK, and 2.5 U of LDH, using various nucleoside substrates. Kinetic constants were determined using GraphPad Prism 8.0 software (www.graphpad.com). Each measurement was performed six times using repetitive purified enzymes. The activities of all five ADKs were also measured by HPLC ([Moffatt et al., 1991]). The reaction mixture comprised 50 mM Tris–HCl pH 7.5, 5 mM MgCl2, 0.5 mM DTT, 30 mM NaF, 5 mM ATP, 40 µM substrate, and 2–150 ng of purified ADK, depending on the isoform. The reaction was incubated at 30 °C for up to 1 h. […] Similarly, the conversion of cytokinin ribosides to monophosphates was followed on a LiChrosphere 60 RP-Select B (5 µm) LiChroCART column 125-4 column equilibrated with 10 mM triethylamine at pH 5.4 plus 10% methanol, and stepwise eluted with 100% methanol.

ZmADK1 = ZmADK1 (Zea mays, UniProt K7UH13); assay: ADK activity, coupled reaction with PK and LDH; conditions: 10 mM ATP, pH 7.5, 30 °C; for Specific activity: 100 µM substrate
Chain of ZmADK1 (K7UH13 entry or part of it): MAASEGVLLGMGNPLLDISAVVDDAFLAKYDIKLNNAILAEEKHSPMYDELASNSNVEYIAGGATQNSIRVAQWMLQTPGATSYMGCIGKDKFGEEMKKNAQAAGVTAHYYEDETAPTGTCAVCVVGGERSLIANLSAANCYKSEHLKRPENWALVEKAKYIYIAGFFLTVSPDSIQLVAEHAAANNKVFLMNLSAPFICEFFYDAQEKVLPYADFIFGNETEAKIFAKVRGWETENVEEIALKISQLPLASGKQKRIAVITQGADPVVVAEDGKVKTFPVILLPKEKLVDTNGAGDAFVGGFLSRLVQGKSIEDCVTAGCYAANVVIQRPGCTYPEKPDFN
Procedure: as §2

ZmADK2 [2] = target: T1, ZmADK2; assay: ADK activity, coupled reaction with PK and LDH; type: biochemical; conditions: pH 7.5
Procedure: as §2

ZmADK3 = ZmADK3 (Zea mays, UniProt A0A1D6E5Z5); assay: ADK activity, coupled reaction with PK and LDH; type: biochemical; conditions: ZmADK3, 10 mM ATP, pH 7.5, 30 °C; for Specific activity: 100 µM substrate
Chain of ZmADK3 (A0A1D6E5Z5 entry or part of it): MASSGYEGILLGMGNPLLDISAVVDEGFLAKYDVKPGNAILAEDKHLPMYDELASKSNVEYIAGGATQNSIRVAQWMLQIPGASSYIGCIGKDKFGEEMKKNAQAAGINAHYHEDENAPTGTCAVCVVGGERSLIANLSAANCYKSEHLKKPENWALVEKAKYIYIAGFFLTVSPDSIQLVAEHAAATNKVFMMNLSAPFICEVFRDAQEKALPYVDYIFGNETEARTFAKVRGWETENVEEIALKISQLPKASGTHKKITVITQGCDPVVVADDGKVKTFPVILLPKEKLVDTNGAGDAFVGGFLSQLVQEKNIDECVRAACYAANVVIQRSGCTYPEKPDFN
Procedure: Substrate analogs were purchased from Sigma-Aldrich (www.sigmaaldrich.com). […] In this assay, PK converts ADP produced by ADK and phosphoenolpyruvate (PEP) to pyruvate. Subsequently, LDH then converts pyruvate to lactate using the coenzyme NADH, with the conversion monitored at 340 nm. The reaction was conducted in 50 mM Tris–HCl buffer at pH 7.5, containing 50 mM KCl, 6 mM MgCl2, 300 µM PEP, 200 µM NADH, 10 mM ATP, 2 U of PK, and 2.5 U of LDH, using various nucleoside substrates. Kinetic constants were determined using GraphPad Prism 8.0 software (www.graphpad.com). Each measurement was performed six times using repetitive purified enzymes. […] The reaction mixture comprised 50 mM Tris–HCl pH 7.5, 5 mM MgCl2, 0.5 mM DTT, 30 mM NaF, 5 mM ATP, 40 µM substrate, and 2–150 ng of purified ADK, depending on the isoform. The reaction was incubated at 30 °C for up to 1 h.

PpADK1 [3] = target: T2, PpADK1 (Physcomitrium patens, UniProt O49923); assay: ADK activity, coupled reaction with PK and LDH; type: biochemical, Physcomitrella patens; conditions: 100 µM substrate, 10 mM ATP, pH 7.5, 30 °C
T2 construct: made in house; host or cells: E. coli T7 Express Iq
T2 sequence (O49923 whole entry): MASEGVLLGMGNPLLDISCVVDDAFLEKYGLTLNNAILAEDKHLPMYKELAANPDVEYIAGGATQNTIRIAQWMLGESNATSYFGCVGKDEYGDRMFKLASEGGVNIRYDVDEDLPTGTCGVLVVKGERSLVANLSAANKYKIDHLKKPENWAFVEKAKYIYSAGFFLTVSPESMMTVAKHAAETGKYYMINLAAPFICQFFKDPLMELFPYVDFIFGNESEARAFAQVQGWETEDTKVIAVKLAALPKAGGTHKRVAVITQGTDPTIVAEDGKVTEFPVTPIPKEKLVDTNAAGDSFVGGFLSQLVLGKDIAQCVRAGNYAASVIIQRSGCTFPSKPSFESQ
Procedure: as §2

rabbit ADK = tested on: rabbit ADK; parameters: method as in Miller et al., 1979a; conditions: ref Miller et al., 1979a; cited from earlier work
PpADK1 [4] = target: T2, PpADK1; assay: Binding affinity by microscale thermophoresis (MST); parameters: species or system Physcomitrella patens; conditions: KD, 50 mM HEPES pH 7.5, 1 mM MgCl2, first or only binding event
Procedure: as §1

all five ADKs = assay: ADK kinetics, coupled reaction (summary for all isoforms); type: biochemical, Zea mays, Physcomitrella patens; conditions: range over all five ADKs
Procedure: Substrate analogs were purchased from Sigma-Aldrich (www.sigmaaldrich.com). The ADK activity was measured spectrophotometrically on an Agilent 8453 UV-Vis spectrophotometer (www.agilent.com) at 30 °C using a coupled reaction with pyruvate kinase (PK) and lactate dehydrogenase (LDH) (www.sigmaaldrich.com) ([Blondin et al., 1994]). In this assay, PK converts ADP produced by ADK and phosphoenolpyruvate (PEP) to pyruvate. Subsequently, LDH then converts pyruvate to lactate using the coenzyme NADH, with the conversion monitored at 340 nm. The reaction was conducted in 50 mM Tris–HCl buffer at pH 7.5, containing 50 mM KCl, 6 mM MgCl2, 300 µM PEP, 200 µM NADH, 10 mM ATP, 2 U of PK, and 2.5 U of LDH, using various nucleoside substrates. Kinetic constants were determined using GraphPad Prism 8.0 software (www.graphpad.com). Each measurement was performed six times using repetitive purified enzymes. The activities of all five ADKs were also measured by HPLC ([Moffatt et al., 1991]). The reaction mixture comprised 50 mM Tris–HCl pH 7.5, 5 mM MgCl2, 0.5 mM DTT, 30 mM NaF, 5 mM ATP, 40 µM substrate, and 2–150 ng of purified ADK, depending on the isoform. The reaction was incubated at 30 °C for up to 1 h. […]

[5] = ZmADK2, 100 µM substrate, 10 mM ATP, 30 °C

T1 sequence (B4FFH8 1-342 T4S): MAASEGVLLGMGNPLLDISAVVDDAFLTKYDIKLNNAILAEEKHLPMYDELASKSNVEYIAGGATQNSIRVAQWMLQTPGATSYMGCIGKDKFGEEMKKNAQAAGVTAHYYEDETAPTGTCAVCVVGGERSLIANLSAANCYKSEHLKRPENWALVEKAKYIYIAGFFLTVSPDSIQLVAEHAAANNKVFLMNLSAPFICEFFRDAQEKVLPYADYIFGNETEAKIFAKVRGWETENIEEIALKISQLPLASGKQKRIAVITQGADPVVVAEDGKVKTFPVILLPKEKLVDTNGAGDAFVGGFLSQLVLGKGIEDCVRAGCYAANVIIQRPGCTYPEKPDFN

Row | Structure (SMILES) | Kd (ZmADK2 [1]; KD) [µM] | Specific activity (PpADK2) [nmol s^–1 mg^–1] | Specific activity (ZmADK1) [nmol s^–1 mg^–1] | Specific activity (ZmADK2 [2]; [5]) [nmol s^–1 mg^–1] | Km (ZmADK2 [2]; ZmADK2, 10 mM ATP, 30 °C) [µM] | kcat (ZmADK2 [2]; ZmADK2, 10 mM ATP, 30 °C) [s^–1] | Specific activity (ZmADK3) [nmol s^–1 mg^–1] | Specific activity (PpADK1 [3]) [nmol s^–1 mg^–1] | Kd (ZmADK2 [1]; read-out: KD) [µM] | also measured
1 | Nc1nc2c(ncn2[C@@H]2O[C@H](CO)[C@@H](O)[C@H]2O)c(=O)[nH]1 [Guanosine] | 217 ± 107 |  |  |  |  |  |  |  |  | 
2 | OC[C@H]1O[C@@H](n2cnc3c(O)ncnc32)[C@H](O)[C@@H]1O [Inosine] | 440 ± 180 |  |  |  |  |  |  |  |  | 
3 | CN(C)c1ncnc2c1ncn2[C@@H]1O[C@H](CO)[C@@H](O)[C@H]1O [N ^6,N^6-DimethylAdo, 6-(dimethylamino)-9H-purine-9-β-D-riboside] |  | 0.86±0.03 | 3.0±0.3 | 3.2±0.0 | 11.2 ± 2.8 | 0.20±0.02 | 5.1±0.4 | 0.91±0.02 | 12.3 ± 4.6 | 
4 | CC(C)CNc1ncnc2c1ncn2[C@@H]1O[C@H](CO)[C@@H](O)[C@H]1O [N ^6-IsobutylAdo] |  | 0.75±0.08 | 2.1±0.4 | 4.2±0.6 | 70.4 ± 8.9 | 0.21±0.01 | 4.8±0.5 | 0.90±0.06 | 45.9 ± 9.3 | 
5 | CC(C)Nc1ncnc2c1ncn2[C@@H]1O[C@H](CO)[C@@H](O)[C@H]1O [N ^6-IsopropylAdo] |  | 0.83±0.05 | 2.2±0.2 | 3.9±0.5 | 54.8 ± 5.8 | 0.19±0.01 | 3.8±0.3 | 0.96±0.09 | 52.8 ± 13.9 | 
6 | CNc1ncnc2c1ncn2[C@@H]1O[C@H](CO)[C@@H](O)[C@H]1O [N ^6-MethylAdo, 6-methylamino-9H-purine-9-β-D-riboside] |  | 0.86±0.03 | 2.7±0.2 | 2.9±0.3 | 10.7 ± 1.5 | 0.24±0.02 | 5.1±0.4 | 0.89±0.00 | 8.7 ± 2.5 | 
7 | O=c1ccn([C@@H]2O[C@H](CO)[C@@H](O)[C@H]2O)c(=O)[nH]1 [Uridine] | > 5000 |  |  |  | > 1000 | 0.15±0.03 |  |  |  | 
8 | O=c1[nH]c(=O)c2ncn([C@@H]3O[C@H](CO)[C@@H](O)[C@H]3O)c2[nH]1 [Xanthosine] | 166 ± 77 |  |  |  |  |  |  |  |  | 
9 | C/C(=C\CNc1ncnc2c1ncn2[C@@H]1O[C@H](CO)[C@@H](O)[C@H]1O)CO [ZR] |  |  |  |  |  |  |  |  |  | Km (rabbit ADK): 20 µM; activity compared with Ado (rabbit ADK): 6.3%
10 | CC(C)=CCNc1ncnc2c1ncn2C1OC(CO)C(O)C1O (stereo not drawn) [iPR, N ^6-isopentenyl adenosine] | 4.8 ± 1.1 | 0.83±0.08 | 2.8±0.3 |  |  |  | 5.1±0.3 | 0.93±0.11 |  | Km (PpADK2): 4 ± 0.3 µM; kcat (PpADK2): 0.03±0.001 s^–1; Km (ZmADK1): 8.5 ± 0.7 µM; kcat (ZmADK1): 0.10±0.002 s^–1; Specific activity (ZmADK2 [2]): 4.1±0.4 nmol s^–1 mg^–1; kcat (ZmADK2 [2]): 0.19±0.01 s^–1; Km (ZmADK3): 4.3 ± 0.4 µM; kcat (ZmADK3): 0.22±0.007 s^–1; Kd (PpADK1 [4]): 5.5 µM; Km (all five ADKs): 4 to 12 µM; Km (rabbit ADK): 7 µM; activity compared with Ado (rabbit ADK): 69%
